Experimental data published in patent US7521540B2, “CYR61 compositions and methods” (Munin Corporation, priority 1996, dated 2009).

How the values were obtained:
[1] = tested on: Human Microvascular Endothelial Cells; assay: In vitro migration assay for angiogenesis inhibitors; type: cell-based; conditions: for migrating cells per set of three high-powered fields, Cyr61 plus compound: Cyr61 1 μg/ml plus 10 mM compound
Method: As in the preceding Example, human microvascular endothelial cells (Clonetics) were used. In one series of assays, several carbohydrates and carbohydrate derivatives were analyzed. These compounds included 10 mM mannose, 10 mM mannose-6-phosphate, and 10 mM galactose. […] Cyr61 plus galactose induced the migration of approximately 74 cells per set of three high-powered fields. […] The angiogenic activity of basic FGF (10 ng/ml) was also tested, as described above, with and without mannose-6-phosphate. In the presence of 10 mM mannose-6-phosphate, bFGF induced 51 cells per set of three high-powered fields to migrate; in its absence, bFGF induced the migration of approximately 52 cells. […] The effect of mannose-6-phosphate on IGF II activity was anticipated because mannose-6-phosphate is known to compete with IGF II for their common receptor (the IGF II receptor). […] Moreover, because there is an essentially perfect correlation between the in vitro migration assay and the in vivo angiogenesis assay, described below, mannose-6-phosphate has been identified as an inhibitor of angiogenesis based on the results of the assay disclosed herein. Accordingly, the invention contemplates a method of inhibiting angiogenesis comprising the step of administering an inhibitor the angiogenic activity of Cyr61 such as mannose-6-phosphate. Assays such as that described above may also be used to screen for other inhibitors of angiogenesis which may be useful in the treatment of diseases associated with angiogenesis such as cancer, and diseases of the eye which are accompanied by neovascularization.

[2] = tested on: 1064SK primary human foreskin fibroblasts; assay: Fibroblast adhesion assay (methylene blue, A620); type: cell-based; conditions: for 1064SK adhesion to Cyr61-coated wells with agent: Cyr61 2 μg/ml, agent at the level stated in the block, Mg2+ 5.0 mM after EDTA; for 1064SK adhesion to vitronectin-coated wells with agent: vitronectin 0.5 μg/ml; for concentration that inhibited cell adhesion to Cyr61: in cell suspension; for 1064SK adhesion to Type I collagen-coated wells with agent: Type I collagen 2 μg/ml
Method: The ability of Cyr61 to mediate cell adhesion in normal fibroblasts was investigated. Microtiter wells were coated with purified recombinant Cyr61 protein, and 1064SK primary human foreskin fibroblasts were allowed to adhere under serum-free conditions. […] 50 μl cell suspensions were plated on microtiter wells coated with varying concentrations (0.5-5.0 μg/ml) of Cyr61 protein. After incubation at 37° C. for 30 minutes, adherent cells were fixed and stained with methylene blue.
In another experiment, microtiter wells were coated with either BSA, Cyr61 (2 μg/ml), or vitronectin (VN; 0.5 μg/ml) and blocked with affinity-purified anti-Cyr61 antibodies for one hour at 37° C. before 1064SK cells were plated.
The effects of divalent cations in cell adhesion to Cyr61 was also investigated. […] Data are means from triplicate determinations. […] Inhibition by Ca^2+ is characteristic of adhesion through some members of the β1 family of integrins, including receptors that bind type I collagen, laminin, and vitronectin (integrins α2β1, α6β1, and αVβ1) in fibroblasts, as well as the lymphocyte-specific integrin αLβ2.
The effects of RGD peptides on Cyr61-mediated fibroblast binding was tested by plating cells in wells coated with Cyr61 (2 μg/ml). Type I collagen (2 μg/ml) or vitronectin (0.5 μg/ml), 2 mM GRGDSP or GRGESP peptide was then added.
Cells were also pre-incubated with 40 μg/ml monoclonal antibodies against the integrin α5 or the integrin αV subunits at room temperature for 30 minutes, then plated on wells coated with Cyr61 (2 μg/ml), vitronectin (0.5 μg/ml) or fibronectin (FN, 1 μg/ml). […] The data are means, representative of three experiments.
The 1064 SK cells were also analyzed using the monoclonal antibody JBIA, which binds the β1 integrin subunit. Cells were pre-incubated with the antibody (50 μg/ml) before plating on microtiter wells coated with Cyr61 (2 μg/ml), Type I collagen (2 μg/ml), or vitronectin (0.5 μg/ml). […] Data are means, representative of three experiments.
To identify the specific β1 integrin that mediates fibroblast adhesion to Cyr61, the inhibitory effects of function-blocking monoclonal antibodies were tested against various integrin α subunits. […] The data are means, representative of at least three experiments.

platelets = assay: Platelet adhesion assay; type: cell-based, human
Method: Microtiter wells were coated with purified recombinant Fisp12/mCTGF or Cyr61, and the adhesion of isolated platelets to these proteins was detected with ^125I-mAb15, an anti-β3 monoclonal antibody (Frelinger et al., J. Biol. Chem 265:6346-6352 [1990]). Platelets were obtained from venous blood drawn from healthy donors and collected into acid-citrate-dextrose (ACD). Washed platelets were prepared by diffenential centrifugation as described (Kinlough-Rathbone et al. Thromb. Haemostas 2:291-308 [1997]), and finally resuspended in HEPES-Tyrode's buffer (5 mM HEPES, pH 7.35, 1 mM MgCl2, 1 mM CaCl2, 135 mM NaCl, 2.7 mM KCl, 11.9 mM NaHCO3, 1 mg/ml dextrose and 3.5 mg/ml BSA). The platelet concentration was adjusted to […].
Microtiter wells (Immulon 2 removawell strips, Dynex Technologies, Inc.) were coated with Cyr61, Fisp12/mCTGF, or fibrinogen (25 μg/ml, 50 μl/well) incubated overnight at 22° C., and then blocked with 3% BSA at 37° C. for 2 hours. Washed platelets were added to the wells (100 μl/well) in the presence and absence of platelet agonists and incubated at 37° C. for 30 minutes. The wells were washed with HEPES-Tyrode's buffer and adherent platelets were detected with ^125I-mAb15, an anti-β3 monoclonal antibody. Exposure to the labeled antibody ([…], 50 μl/well) proceeded for 1 hour at 22° C. After extensive washing with HEPES-Tyrode's buffer, bound radioactivity was determined by γ-counting. In inhibition studies, washed platelets were pre-incubated with blocking peptides or antibodies at 37° C. for 15 minutes prior to addition to microtiter wells.
The anti-β3 antibody was radioiodinated with carrier-free Na^125I (Amersham Corp.) using the IODO-BEADS iodination reagent (Pierce) to a specific activity of approximately 2 μCi/μg. […] As controls, BSA- and fibrinogen-coated (KabiVitrum Inc.) wells were also used. Initially, the adhesion of unactivated versus activated platelets to immobilized Fisp12/mCTGF and Cyr61 was compared. To ensure that plateltes were not activated during the washing procedures, PGl2 (100 nM), which inhibits activation by raising platelet cAMP levels, was added to the platelet suspensions. […]

HUVE cells = assay: HUVE cell attachment to murine Cyr61-coated plates; type: cell-based, human; conditions: Cyr61-coated surfaces
Method: Another embodiment of the invention is directed to the use of Cyr61 to mediate cellular attachment to the extracellular matrix. Induction of cellular adhesion was investigated using murine Cyr61, fibronectin, and bovine serum albumin (BSA). Immunological 96-well plates (Falcon brand) were coated with 50 μl of 0.1% BSA in PBS at 4° C. in the presence of 0-30 μg/ml concentrations of murine Cyr61 or fibronectin. After two hours exposure to the coating solution, non-diluted immune or pre-immune antisera (30 μl/well), or affinity-purified anti-Cyr61 antibodies were added. For some wells, the coating mixture was adjusted to 10 mM DTT or 100 mM HCl. After 16 hours incubation, the coating solution was removed and the well surface was blocked with 1% BSA in phosphate-buffered saline (PBS) for 1 hour at room temperature. HUVE cells were plated in Ham's complete F12K medium [GIBCO-BRL, Inc.; Ham, Proc. Natl. Acacd. Sci. (USA) 53:786 (1965)] at 5×10^3-10^4 cells/well. Cycloheximide was added to 100 μg/ml immediately before plating and monensin was added to 1 μM 14 hours before plating. After a 2-hour incubation at 37° C., the wells were washed with PBS and attached cells were fixed and stained with methylene blue. The attachment efficiency was determined by quantitative dye extraction and measurement of the extract absorbance at 650 nm. Oliver et al., J. Cell. Sci. 92:513-518 (1989).

Molecule: O=C[C@@H](O)[C@@H](O)[C@H](O)[C@H](O)COP(=O)(O)O [mannose-6-phosphate]
- migrating cells induced by Cyr61 in presence of compound [1]: approximately 12 cells
- migrating cells induced by IGF-II in presence of compound [1]: ~11 cells
- migrating cells per set of three high-powered fields, Cyr61 plus compound [1]: approximately 2 cells
- migrating cells induced by bFGF in presence of compound ([1]; bFGF 10 ng/ml, 10 mM compound): 51 cells

Molecule: chondroitinase A, B, C
- 1064SK adhesion to Cyr61-coated wells with agent [2]: 0.57 A620
- 1064SK adhesion to fibronectin-coated wells with agent ([2]; fibronectin 1 μg/ml): 0.65 A620
- 1064SK adhesion to vitronectin-coated wells with agent [2]: 0.69 A620

Molecule: CCCCC[C@H](O)/C=C/[C@@H]1[C@H]2C/C(=C/CCCC(=O)O)O[C@H]2C[C@H]1O [PGl2]
- effect of agent on activated platelet adhesion to Cyr61 and Fisp12/mCTGF (platelets): significantly inhibited

Molecule: O=S(=O)([O-])[O-].[Mg+2] [MgSO4, magnesium sulfate]
- effect of agent on fibroblast adhesion to Cyr61 [2]: resuced

Molecule: Chondroitin sulfate B (Dermatan sulfate) [chondroitin B]
- concentration that inhibited cell adhesion to Cyr61 [2]: 10 µg/mL

Molecule: Chondroitin sulfate C [chondroitin C]
- inhibition of adhesion to Cyr61 ([2]; 0.01-1000 μg/ml): failed to inhibit adhesion to Cyr61 at all concentrations tested

Molecule: RGES [reference compound]
- effect of agent on adhesion of ADP-activated platelets to fibrinogen (platelets): not by RGES or LM609

Molecule: GRGDSP
- effect of agent on activated platelet adhesion to Cyr61 and Fisp12/mCTGF (platelets): specifically inhibited
- 1064SK adhesion to Cyr61-coated wells with agent [2]: ~0.48 A620
- 1064SK adhesion to Type I collagen-coated wells with agent [2]: 0.47 A620
- 1064SK adhesion to vitronectin-coated wells with agent [2]: 0.05 A620

Molecule: C[C@@H]1C[C@@H]([C@H](O)CC2CC(=O)NC(=O)C2)C(=O)[C@@H](C)C1 [cycloheximide]
- effect of agent on HUVE cell adhesion to Cyr61 (HUVE cells): insensitive

Molecule: O=C[C@H](O)[C@@H](O)[C@@H](O)[C@H](O)CO [galactose]
- migrating cells per set of three high-powered fields, Cyr61 plus compound [1]: approximately 74 cells

Molecule: O=C(O)CN(CCOCCOCCN(CC(=O)O)CC(=O)O)CC(=O)O [EGTA]
- effect of agent on HUVE cell adhesion to Cyr61 (HUVE cells): completely abolished

Molecule: GRGESP
- 1064SK adhesion to Cyr61-coated wells with agent [2]: ~0.46 A620
- 1064SK adhesion to Type I collagen-coated wells with agent [2]: 0.49 A620
- 1064SK adhesion to vitronectin-coated wells with agent [2]: 0.41 A620

Molecule: laminin
- 1064SK adhesion to coated protein, nothing added ([2]; Cyr61 2, VN 0.5, Type I collagen 2, fibronectin 1, laminin 5 μg/ml): 0.62 A620

Molecule: heparan sulfate
- concentration that inhibited cell adhesion to Cyr61 [2]: 0.1 µg/mL

Molecule: Chondroitin sulfate A [chondroitin A]
- concentration that inhibited cell adhesion to Cyr61 [2]: 1000 µg/mL

Molecule: IGF-II: Insulin Growth Factor II
- migrating cells, chemoattractant without mannose-6-phosphate ([1]; bFGF 10 ng/ml, Cyr61, IGF-II): ~47 cells

Molecule: [Mn+2] [Mn^2+]
- effect of agent on fibroblast adhesion to Cyr61 [2]: had no effect

Molecule: [Mg+2] [Mg^2+]
- effect of agent on fibroblast adhesion to Cyr61 [2]: had no effect
- 1064SK adhesion to Cyr61-coated wells with agent [2]: 0.50 A620
- 1064SK adhesion to Type I collagen-coated wells with agent [2]: 0.58 A620
- 1064SK adhesion to vitronectin-coated wells with agent [2]: 0.55 A620

Molecule: CC[C@@]1([C@@H]2O[C@@H]([C@H]3O[C@@](O)(CO)[C@H](C)C[C@@H]3C)C[C@@H]2C)CC[C@H]([C@]2(C)CC[C@]3(C[C@H](O)[C@@H](C)[C@@H]([C@@H](C)[C@@H](OC)[C@H](C)C(=O)O)O3)O2)O1 [monensin]
- effect of agent on HUVE cell adhesion to Cyr61 (HUVE cells): insensitive

Molecule: [Ca+2] [Ca^2+]
- effect of agent on fibroblast adhesion to Cyr61 [2]: abolished cell adhesion to Cyr61 competely

Molecule: [Na+].[O-][Cl+2]([O-])[O-] [sodium chlorate]
- inhibition of cell adhesion to other substrates ([2]; 40 mM, fibronectin, type I collagen, vitronectin, laminin): 10-20%
- inhibition of cell adhesion to Cyr61 ([2]; sodium chlorate 40 mM): 90%
